According to patent publication US11413360B2, “Dual mode radiotracer and—therapeutics” (priority 2017, dated 2022):
Like-named read-outs stand apart in the source and are kept apart here.

Legend:
PSMA = molecular target: T1, PSMA (Homo sapiens, UniProt Q04609); assay: Determination of PSMA affinity (IC50), competition with ([125I]I-BA)KuE on LNCaP cells; format: binding; conditions: ([125I]I-BA)KuE 0.2 nM
T1 construct: endogenous in cells; host or cells: LNCaP cells
Method: After removal of the culture medium, the cells were treated once with 500 μL of HBSS (Hank's balanced salt solution, Biochrom, Berlin, Germany, with addition of 1% bovine serum albumin (BSA)) and left 15 min on ice for equilibration in 200 μL HBSS (1% BSA). […] Quantification of bound and free radioligand was accomplished in a γ-counter.

[1] = Octanol-water partition coefficient (log D) of radiolabelled ligands; format: physicochemical; conditions: n = 6
Method: Approximately 1 MBq of the labelled tracer was dissolved in 1 mL of a 1:1 mixture (by volumes) of phosphate buffered saline (PBS, pH 7.4) and n-octanol in an Eppendorf tube. After vigorous mixing of the suspension for 3 minutes at room temperature, the vial was centrifuged at 15000 g for 3 minutes (Biofuge 15, Heraus Sepatech, Osterode, Germany) and 100 μL aliquots of both layers were measured in a gamma counter. The experiment was repeated at least six times.

LNCaP cells = assay: Internalization of radiolabelled ligands into LNCaP cells; format: cell-based; conditions: 1 hour, % of reference ligand ([125I]I-BA)KuE
Method: Subsequent to the removal of the culture medium, the cells were washed once with 500 μL DMEM-F12 (5% BSA) and left to equilibrate for at least 15 min at 37° C. in 200 μL DMEM-F12 (5% BSA). Each well was treated with either 25 μL of either DMEM-F12 (5% BSA) or a 100 μM PMPA solution for blockade. […] The experiment was terminated by placing the 24-well plate on ice for 3 min and consecutive removal of the medium. Each well was rinsed with 250 μL HBSS and the fractions from these first two steps combined, representing the amount of free radioligand. Removal of surface bound activity was accomplished by incubation of the cells with 250 μL of ice-cold PMPA (10 μM in PBS) solution for 5 min and rinsed again with another 250 μL of ice-cold PBS. The internalized activity was determined by incubation of the cells in 250 μL 1 M NaOH and the combination with the fraction of a subsequent wash step with 250 μL 1.0 M NaOH. Each experiment (control and blockade) was performed in triplicate. Free, surface bound and internalized activity was quantified in a γ-counter. […] Data were corrected for non-specific internalization and normalized to the specific-internalization observed for the radioiodinated reference compound.

Human Serum Albumin [2] = molecular target: T2, Human Serum Albumin (Homo sapiens, UniProt P02768); assay: HSA binding on Chiralpak HSA column; format: in vitro ADME
Human Serum Albumin [3] = molecular target: T2, Human Serum Albumin; assay: Literature HSA binding of reference substances (Yamazaki et al.) for HSA-column calibration; conditions: logarithmic K of human serum albumin binding
Method: The mobile phase (A: NH4OAc, 50 mM in water, pH 7 and B: isopropanol) was freshly prepared for each experiment and only used for one day. The column was kept at room temperature and each run was stopped after detection of the signal to reduce the acquisition time. All substances were dissolved in a 0.5 mg/ml concentration in 50% 2-propanol and 50% 50 mM pH 6.9 ammonium acetate buffer. […] All nine reference substances (see Table 1) were injected consecutively to establish a non-linear regression with OriginPro 2016G; see FIG. 1.
HSA literature value of human serum albumin binding in [%]; Log K HAS logarithmic K of human serum albumin binding.

Human Serum Albumin [4] = molecular target: T2, Human Serum Albumin; conditions: literature value of human serum albumin binding; cited from earlier work
[5] = cited from earlier work
[6] = natLu-natF-L, 1 h, 4° C., mean ± SD, read-out: IC50
[7] = n-octanol/PBS, pH 7.4, 177Lu-natF-L
[8] = 177Lu-natF-L, 0.5 nM, 37° C., mean ± SD
[9] = IC50, natF-L (uncomplexed), 1 h, 4° C., mean ± SD
[10] = IC50, natGa-natF-L, 1 h, 4° C., mean ± SD
[11] = pH 7.4, 68Ga-natF-L, n-octanol/PBS pH 7.4
[12] = 68Ga-natF-L, 0.5 nM, 37° C., mean ± SD
[13] = pH 7.4, 18F-L, n-octanol/PBS pH 7.4
[14] = 18F-L, 0.5 nM, 37° C., mean ± SD

T2 sequence (P02768 25-609): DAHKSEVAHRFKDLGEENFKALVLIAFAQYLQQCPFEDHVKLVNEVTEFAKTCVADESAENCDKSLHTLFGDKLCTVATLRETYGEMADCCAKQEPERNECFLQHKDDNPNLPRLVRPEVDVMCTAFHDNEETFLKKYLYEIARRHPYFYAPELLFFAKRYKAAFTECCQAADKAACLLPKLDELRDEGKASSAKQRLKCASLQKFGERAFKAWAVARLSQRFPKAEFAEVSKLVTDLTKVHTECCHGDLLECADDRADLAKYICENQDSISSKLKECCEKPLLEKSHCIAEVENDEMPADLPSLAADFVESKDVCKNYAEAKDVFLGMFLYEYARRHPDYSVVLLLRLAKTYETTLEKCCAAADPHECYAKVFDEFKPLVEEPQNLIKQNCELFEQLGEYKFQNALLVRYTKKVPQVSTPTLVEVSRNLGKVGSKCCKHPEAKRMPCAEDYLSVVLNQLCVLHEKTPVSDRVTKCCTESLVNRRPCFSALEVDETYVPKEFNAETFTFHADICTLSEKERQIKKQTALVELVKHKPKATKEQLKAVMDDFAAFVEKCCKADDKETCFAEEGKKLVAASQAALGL
T1 sequence (Q04609 whole entry): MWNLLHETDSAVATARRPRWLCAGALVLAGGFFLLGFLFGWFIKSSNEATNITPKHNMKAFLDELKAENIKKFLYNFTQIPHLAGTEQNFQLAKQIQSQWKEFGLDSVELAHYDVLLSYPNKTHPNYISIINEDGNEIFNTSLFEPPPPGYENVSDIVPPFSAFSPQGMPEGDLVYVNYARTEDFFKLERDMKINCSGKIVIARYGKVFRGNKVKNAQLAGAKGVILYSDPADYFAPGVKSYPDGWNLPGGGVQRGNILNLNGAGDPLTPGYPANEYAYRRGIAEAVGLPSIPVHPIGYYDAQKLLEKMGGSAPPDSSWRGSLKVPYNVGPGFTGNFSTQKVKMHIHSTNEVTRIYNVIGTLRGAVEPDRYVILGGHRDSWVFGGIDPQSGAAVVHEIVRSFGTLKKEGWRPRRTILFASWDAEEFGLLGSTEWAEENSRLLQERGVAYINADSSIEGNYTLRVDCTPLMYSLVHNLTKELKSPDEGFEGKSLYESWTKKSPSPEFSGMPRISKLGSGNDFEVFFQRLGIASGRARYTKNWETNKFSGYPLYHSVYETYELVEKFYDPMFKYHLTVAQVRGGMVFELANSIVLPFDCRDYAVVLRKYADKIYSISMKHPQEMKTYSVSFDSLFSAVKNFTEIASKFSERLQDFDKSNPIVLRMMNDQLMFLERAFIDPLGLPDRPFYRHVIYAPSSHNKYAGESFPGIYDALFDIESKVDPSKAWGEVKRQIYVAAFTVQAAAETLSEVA

CC(C)(C)[Si](F)(c1ccc(C(=O)NC(CNC(=O)CN2CCN(CC(=O)O)CCN(CC(=O)O)CCN(CC(=O)O)CC2)C(=O)NC(CCCCNC(=O)CCC(=O)NCCCC(NC(=O)CC[C@H](NC(=O)N[C@@H](CCC(=O)O)C(=O)O)C(=O)O)C(=O)O)C(=O)O)cc1)C(C)(C)C (some centres unmarked) [ligand 11]
IC50 (PSMA; [6]): 4.8 ± 0.7 nM
logD [1, 7]: -3.62 ± 0.06
Internalization (LNCaP cells; [8]): 134.5 ± 18.5%
HSA binding (Human Serum Albumin [2]; natLu-natF-L): 92.4%

CC(C)(C)[Si](F)(c1ccc(C(=O)NC[C@@H](NC(=O)CCC(C(=O)O)N2CCN(CC(=O)O)CCN(CC(=O)O)CCN(CC(=O)O)CC2)C(=O)N[C@H](CCCCNC(=O)CCCCCCC(=O)NCCCC[C@H](NC(=O)N[C@@H](CCC(=O)O)C(=O)O)C(=O)O)C(=O)O)cc1)C(C)(C)C (some centres unmarked) [ligand 5, PSMA-SIFA1]
IC50 (PSMA; [9]): 6.4 ± 0.2 nM
IC50 (PSMA; [10]): 7.3 ± 0.2 nM
logD [1, 11]: -2.75 ± 0.07
Internalization (LNCaP cells; [12]): 33.0 ± 2.1%

CC(C)(C)[Si](F)(c1ccc(C(=O)NCC(NC(=O)CN2CCN(CC(=O)O)CCN(CC(=O)O)CCN(CC(=O)O)CC2)C(=O)NC(CCCCNC(=O)CCC(=O)NCCCC(NC(=O)CC[C@H](NC(=O)N[C@@H](CCC(=O)O)C(=O)O)C(=O)O)C(=O)O)C(=O)O)cc1)C(C)(C)C (some centres unmarked) [ligand 10]
IC50 (PSMA; [6]): 2.8 ± 0.7 nM
logD [1, 7]: -3.59 ± 0.05
Internalization (LNCaP cells; [8]): 184.1 ± 16%
HSA binding (Human Serum Albumin [2]; natLu-natF-L): 94.0%

O=C(O)CC[C@H](NC(=O)N[C@@H](CCCCNC(=O)c1ccc(F)nc1)C(=O)O)C(=O)O [DCFPyL, reference compound]
Internalization (LNCaP cells; references): DCFPyL 118 ± 5%

PSMA-1007 [reference compound]
IC50 (PSMA; references, read-out: IC50): 4.2 nM
Internalization (LNCaP cells; references): PSMA-1007 118 ± 4%

Oc1ccccc1 [Phenol]
Log K HSA (Human Serum Albumin [3]): −0.59
Lit. HSA % (Human Serum Albumin [4]): 20.69%

CC(C)(C)[Si](F)(c1ccc(C(=O)NC[C@@H](C(=O)N[C@H](CCCCNC(=O)CCC(=O)NCCC[C@@H](NC(=O)CC[C@H](NC(=O)N[C@@H](CCC(=O)O)C(=O)O)C(=O)O)C(=O)O)C(=O)O)n2cc(CNC(=O)CCP(=O)(O)CN3CCN(CP(=O)(O)CCC(=O)O)CCN(CP(=O)(O)CCC(=O)O)CC3)nn2)cc1)C(C)(C)C [ligand 9, PSMA-SIFA5]
IC50 (PSMA; [9]): 4.3 ± 0.2 nM
IC50 (PSMA; [10]): 4.5 ± 0.3 nM
logD [1, 13]: -2.23 ± 0.07
logD [1, 11]: -3.26 ± 0.06
Internalization (LNCaP cells; [14]): 211.6 ± 5.3%
Internalization (LNCaP cells; [12]): 176.9 ± 11.7%
HSA binding (Human Serum Albumin [2]; natGa-natF-L): 95.1%

SIFA-Asn(AcNH-β-Glc)-Tyr^3-octreotate
log P(ow) [5]: 1.23

CC(C)(C)[Si](F)(c1ccc(C(=O)N[C@H](CNC(=O)CCC(C(=O)O)N2CCN(CC(=O)O)CCN(CC(=O)O)CCN(CC(=O)O)CC2)C(=O)N[C@H](CCCCNC(=O)CCC(=O)NCCC[C@@H](NC(=O)CC[C@H](NC(=O)N[C@@H](CCC(=O)O)C(=O)O)C(=O)O)C(=O)O)C(=O)O)cc1)C(C)(C)C (some centres unmarked) [ligand 8, PSMA-SIFA4]
IC50 (PSMA; [9]): 2.5 ± 0.2 nM
IC50 (PSMA; [10]): 3.8 ± 0.7 nM
IC50 (PSMA; IC50, natLu-natF-L, 1 h, 4° C., mean ± SD): 3 ± 0.2 nM
logD [1, 13]: -2.25 ± 0.07
logD [1, 11]: -2.59 ± 0.04
logD ([1]; pH 7.4, 177Lu-natF-L, n-octanol/PBS pH 7.4): -3.75 ± 0.06
Internalization (LNCaP cells; [14]): 130.3 ± 5.5%
Internalization (LNCaP cells; [12]): 98.2 ± 12.4%
Internalization (LNCaP cells; [8]): 165.9 ± 8.5%
HSA binding (Human Serum Albumin [2]; natGa-natF-L): 96.5%
HSA binding (Human Serum Albumin [2]; natLu-natF-L): 97.7%

CC(C)(C)[Si](F)(c1ccc(C(=O)NC[C@@H](C(=O)N[C@H](CCCCNC(=O)CCCCCCC(=O)NCCCC[C@H](NC(=O)N[C@@H](CCC(=O)O)C(=O)O)C(=O)O)C(=O)O)n2cc(CNC(=O)CCP(=O)(O)CN3CCN(CP(=O)(O)CCC(=O)O)CCN(CP(=O)(O)CCC(=O)O)CC3)nn2)cc1)C(C)(C)C [ligand 6, PSMA-SIFA2]
IC50 (PSMA; [9]): 8.5 ± 1.7 nM
IC50 (PSMA; [10]): 10.8 ± 2.5 nM
logD [1, 11]: -3 ± 0.09
Internalization (LNCaP cells; [12]): 43.0 ± 3.4%

CCCN(CCC)S(=O)(=O)c1ccc(C(=O)O)cc1 [Probenecid]
Lit. HSA % (Human Serum Albumin [4]): 95.00%

SIFA-Asn(AcNH-β-Glc)-PEG-Tyr^3-octreotate
log P(ow) [5]: 0.96

O=C(O)c1ccccc1 [Benzoic Acid]
Lit. HSA % (Human Serum Albumin [4]): 34.27%

Nc1ccccc1 [Aniline]
Log K HSA (Human Serum Albumin [3]): −0.79
Lit. HSA % (Human Serum Albumin [4]): 14.06%

COc1ccc(Cl)cc1C(=O)NCCc1ccc(S(=O)(=O)NC(=O)NC2CCCCC2)cc1 [Glibenclamide]
Log K HSA (Human Serum Albumin [3]): 1.69
Lit. HSA % (Human Serum Albumin [4]): 99.00%
